Measurements from US11046651B2, “Piperazine substituted azapine derivatives and uses thereof” (Alairion, Inc., priority 2019, dated 2021).
Read-outs that look alike come from different tables or passages of the source.

Assays:
[1] = target: D2 (Homo sapiens (Human), UniProt P14416); assay: D2 binding assay ([3H] 7-OH-DPAT, HEK293 D2L membranes); settings: numeric values
Procedure: D2 Binding Assay Protocol
The testing compounds were diluted with DMSO, starting at 2 mM, with 8-points and 5-fold serial dilutions. droperidol was diluted with DMSO, starting at 0.2 mM, with 8-points and 4-fold serial dilutions.
1 μL of a compound of the present disclosure and the reference compound (Table O) was transferred to an assay plate. 1 μL of droperidol was transferred to an assay plate according to the plate map for nonspecific binding (Low control: LC). 1 μL of DMSO was transferred to an assay plate according to the plate map for total binding (High control: HC). Following a plate map, 100 μL of the membrane stock solutions and radio ligand were added into the plate. The plates were sealed and shaken with 300 rpm.
Unifilter-96 GF/C filter plates were soaked with 50 μL of 0.3% PEI per well for about 0.5 hours at room temperature. When the binding assays were complete, the reaction mixture was filtered through the GF/B filter plates using Perkin Elmer Filtermate Harvester, and each plate was washed 4 times with cold wash buffer. The filter plates were dried for 1 hour at 50° C. After drying, the bottom of the filter plate wells were sealed using Perkin Elmer Unifilter-96 backing seal tape. 50 μL of Perkin Elmer Microscint 20 cocktail was added. The top of the filter plates were sealed with Perkin Elmer TopSeal-A sealing film.
^3H trapped on filters were counted using Perkin Elmer MicroBeta2 Reader. Inhibition constants were calculated using the following equation: […]
The data was analyzed using Prism 5. The model used was “log(inhibitor) vs. response—Variable slope” to fit the data and calculate IC50. The IC50 was then converted to Ki using the following equation: Ki=IC50/(1+L/Kd), wherein L is the radioligand concentration in the reaction system; Kd is the affinity of radioligand to the receptor. As shown in Table Q Compound No. 7 has a lower affinity for D2 when compared to Compounds A-2, A-3, A-4, and A-5.

[2] = Human clearance and half-life projections (allometric scaling from monkey clearance)
Procedure: (§1) The biological activity of the compounds of the present disclosure may be determined utilizing projected human clearance (CL) and half-life in humans. An allometric scaling method, using a single species scaling from monkey clearance was used to project clearance. Human volume of distribution (Vd) was projected from animal Vd, adjusted for differences in plasma protein binding and assuming similar unbound Vd across species. Human half-life (T1/2) was calculated based on a one-compartmental model, using a relationship of T1/2=0.693×(predicted Vd/predicted CL).
as §1, with “An” for “The biological activity of the compounds of the present disclosure may be determined utilizing projected human clearance (CL) and half-life in humans. An”

[3] = target: 5-HT2C (Homo sapiens (Human), UniProt P28335); assay: 5-HT2C binding assay ([3H]-Mesulergine, HEK293 membranes)
Sequence of 5-HT2C (P28335 33-458): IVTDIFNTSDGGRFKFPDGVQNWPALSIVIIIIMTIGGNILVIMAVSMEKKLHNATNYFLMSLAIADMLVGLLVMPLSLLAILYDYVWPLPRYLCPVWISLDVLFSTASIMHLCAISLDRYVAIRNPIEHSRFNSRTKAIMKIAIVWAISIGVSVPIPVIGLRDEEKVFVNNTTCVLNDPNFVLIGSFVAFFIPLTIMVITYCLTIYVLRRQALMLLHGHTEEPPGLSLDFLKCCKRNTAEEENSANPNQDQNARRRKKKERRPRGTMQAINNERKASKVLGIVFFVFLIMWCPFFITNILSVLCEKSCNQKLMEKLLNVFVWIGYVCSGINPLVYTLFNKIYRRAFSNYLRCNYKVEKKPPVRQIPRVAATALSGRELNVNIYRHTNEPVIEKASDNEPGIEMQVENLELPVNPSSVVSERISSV

Sequence of D2 (P14416 whole entry): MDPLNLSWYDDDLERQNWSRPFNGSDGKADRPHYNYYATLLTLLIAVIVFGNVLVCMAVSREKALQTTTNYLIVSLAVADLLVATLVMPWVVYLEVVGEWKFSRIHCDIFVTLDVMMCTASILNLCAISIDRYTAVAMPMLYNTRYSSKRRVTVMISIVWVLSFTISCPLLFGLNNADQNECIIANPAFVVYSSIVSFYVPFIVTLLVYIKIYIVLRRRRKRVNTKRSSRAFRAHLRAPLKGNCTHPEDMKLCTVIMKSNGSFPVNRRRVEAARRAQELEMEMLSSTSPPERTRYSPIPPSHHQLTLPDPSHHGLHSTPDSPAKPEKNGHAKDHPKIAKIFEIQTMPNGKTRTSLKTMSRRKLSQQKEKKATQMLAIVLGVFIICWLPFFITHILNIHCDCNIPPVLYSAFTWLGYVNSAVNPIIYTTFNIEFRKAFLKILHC

In the case of `Cc1ccc2c(c1)Oc1cc(C)ccc1C(N1CCN(CC(C)(C)C(=O)O)CC1)=N2` [Compound No. 7, 3-(4-(3,7-dimethyldibenzo[b,f][1,4]oxazepin-11-yl)piperazin-1-yl)-2,2-dimethylpropanoic acid], the Ki [1] is reported as greater than 50 µM, the “T1/2 (h), projected human half-life” value ([2]; one-compartmental model, T1/2=0.693×(predicted Vd/predicted CL)) is reported as 4 to 8 h and the “CL (mL/min/kg), projected human clearance” value ([2]; single species scaling from monkey clearance) is reported as 1.3 mL/min/kg. The Ki [3] was greater than 0.5 µM and the Ki ([3]; numeric values) was 2.22 µM.
